Laboratory results published in ChEMBL document CHEMBL5154935, “Design, Synthesis, and Biological Evaluation of Novel Evodiamine Derivatives as Potential Antihepatocellular Carcinoma Agents” (J Med Chem, 2022).
Calls of active or inactive are those of the source. No cut-off for these calls is given here.

Columns and labels:
SK-HEP1 [1] = test: Induction of cell cycle arrest in human SK-Hep1 cells assessed as accumulation at G1 phase at 80 nM treated for 24 hrs by PI staining based flow cytometry (reference value: 58.47 %); format: functional
Huh-7 [2] = test: Induction of apoptosis in human Huh-7 cells assessed as necrotic cells at 10 nM incubated for 24 hrs by annexin V-FITC/PI staining flow cytometry (reference value: 1.08 %); format: functional
Huh-7 [3] = test: Antiproliferative activity against human Huh-7 cells assessed as inhibition of cell viability treated for 24 to 72 hrs by MTT assay; format: functional, cell-based; conditions: time 24-72 hrs, DDE = dose-dependent effect
SK-HEP1 [4] = test: Induction of apoptosis in human SK-Hep1 cells assessed as viable cells at 80 nM incubated for 24 hrs by annexin V-FITC/PI staining flow cytometry (reference value: 97.8 %); format: functional; conditions: read-out: Activity
Huh-7 [5] = test: Induction of apoptosis in human Huh-7 cells assessed as early apoptotic cells at 10 nM incubated for 24 hrs by annexin V-FITC/PI staining flow cytometry (reference value: 0.33 %); format: functional
SK-HEP1 [6] = test: Induction of apoptosis in human SK-Hep1 cells assessed as early apoptotic cells at 10 nM incubated for 24 hrs by annexin V-FITC/PI staining flow cytometry (reference value: 0.30 %); format: functional
[7] = Induction of apoptosis in rat HSC-T6 cells assessed as late apoptotic cells at 40 nM pretreated with TGFbeta-1 for 1 day followed by compound addition and measured after 24 hrs by flow cytometry (reference value: 1.76 %); format: functional
Huh-7 [8] = test: Induction of ROS generation in human Huh-7 cells incubated for 24 hrs by DCFH2-DA probe based flow cytometry; format: functional, cell-based; conditions: dose 10-80 nM, DDE = dose-dependent effect
[9] = Toxicity in BALB/c mouse xenografted with human Huh-7 cells assessed as reduction in RBC levels at 10 mg/kg, ip qd for 11 days and measured on day 11; format: organism-based, Erythrocyte; conditions: in vivo, 264 h, time 11 day
SK-HEP1 [10] = test: Induction of apoptosis in human SK-Hep1 cells assessed as necrotic cells at 80 nM incubated for 24 hrs by annexin V-FITC/PI staining flow cytometry (reference value: 0.73 %); format: functional
SK-HEP1 [11] = test: Induction of cell cycle arrest in human SK-Hep1 cells assessed as accumulation at G2 phase at 10 nM treated for 24 hrs by PI staining based flow cytometry (reference value: 16.55 %); format: functional
[12] = Induction of apoptosis in rat HSC-T6 cells assessed as viable cells at 80 nM pretreated with TGFbeta-1 for 1 day followed by compound addition and measured after 24 hrs by flow cytometry (reference value: 97.5 %); format: functional; conditions: read-out: Activity
Huh-7 [13] = test: Induction of cell cycle arrest in human Huh-7 cells assessed as accumulation at S phase at 10 nM treated for 24 hrs by PI staining based flow cytometry (reference value: 23.33 %); format: functional
[14] = Toxicity in BALB/c mouse xenografted with human Huh-7 cells assessed as decrease in body weight at 10 mg/kg, ip qd for 11 days and measured every 2 days; format: organism-based; conditions: in vivo, 264 h, time 11 day
Huh-7 [15] = test: Induction of cell cycle arrest in human Huh-7 cells assessed as accumulation at S phase at 80 nM treated for 24 hrs by PI staining based flow cytometry (reference value: 23.33 %); format: functional
Huh-7 [16] = test: Induction of cell cycle arrest in human Huh-7 cells assessed as accumulation at G2 phase at 40 nM treated for 24 hrs by PI staining based flow cytometry (reference value: 15.90 %); format: functional
HCC [17] = test: Inhibition of cell proliferation of human HCC cells treated for 24 hrs by EdU staining based fluorescence microscopy assay; format: functional; conditions: dose 3-18 nM, DDE = dose-dependent effect
Huh-7 [18] = test: Induction of apoptosis in human Huh-7 cells assessed as necrotic cells at 40 nM incubated for 24 hrs by annexin V-FITC/PI staining flow cytometry (reference value: 1.08 %); format: functional
[19] = Antiproliferative activity against human L02 cells treated for 72 hrs by MTT assay; format: toxicity, cell-based
SK-HEP1 [20] = test: Induction of apoptosis in human SK-Hep1 cells assessed as late apoptotic cells at 10 nM incubated for 24 hrs by annexin V-FITC/PI staining flow cytometry (reference value: 1.13 %); format: functional
SK-HEP1 [21] = test: Induction of apoptosis in human SK-Hep1 cells assessed as necrotic cells at 40 nM incubated for 24 hrs by annexin V-FITC/PI staining flow cytometry (reference value: 0.73 %); format: functional
Huh-7 [22] = test: Antitumor activity in human Huh-7 cells xenografted in BALB/c mouse assessed as decrease in Ki-67 positive cells at 10 mg/kg, ip qd for 11 days and measured on day 12 by immunohistochemistry staining based assay; format: functional, organism-based; conditions: time 12.0 day
SK-HEP1 [23] = test: Induction of cell cycle arrest in human SK-Hep1 cells assessed as accumulation at S phase at 80 nM treated for 24 hrs by PI staining based flow cytometry (reference value: 24.98 %); format: functional
Huh-7 [24] = test: Antiproliferative activity against human Huh-7 cells assessed as inhibition of cell viability by MTT assay; format: functional, cell-based; conditions: time 24-72 hrs, TDE = time-dependent effect
Huh-7 [25] = test: Induction of cell cycle arrest in human Huh-7 cells assessed as accumulation at G1 phase at 80 nM treated for 24 hrs by PI staining based flow cytometry (reference value: 60.77 %); format: functional
Huh-7 [26] = test: Induction of apoptosis in human Huh-7 cells assessed as late apoptotic cells at 40 nM incubated for 24 hrs by annexin V-FITC/PI staining flow cytometry (reference value: 1.33 %); format: functional
[27] = Induction of apoptosis in rat HSC-T6 cells assessed as necrotic cells at 40 nM pretreated with TGFbeta-1 for 1 day followed by compound addition and measured after 24 hrs by flow cytometry (reference value: 0.56 %); format: functional
Huh-7 [28] = test: Induction of apoptosis in human Huh-7 cells assessed as viable cells at 80 nM incubated for 24 hrs by annexin V-FITC/PI staining flow cytometry (reference value: 97.3 %); format: functional; conditions: read-out: Activity
SK-HEP1 [29] = test: Induction of apoptosis in human SK-Hep1 cells assessed as cell shrinkage incubated for 24 hrs by Giemsa staining based microscopy; format: functional; conditions: dose 12-60 nM, DDE = dose-dependent effect
SK-HEP1 [30] = test: Induction of apoptosis in human SK-Hep1 cells assessed as viable cells at 40 nM incubated for 24 hrs by annexin V-FITC/PI staining flow cytometry (reference value: 97.8 %); format: functional; conditions: read-out: Activity
HSC-T6 = test: Suppression of TGF-beta-1-stimulated rat HSC-T6 cells activation assessed as reduction in Col-1 levels preincubated with TGFbeta-1 followed by compound addition and measured after 24 to 48 hrs by ELISA; format: functional, cell-based; conditions: dose 10-80 nM, time 24-48 hrs, DDE = dose-dependent effect
SK-HEP1 [31] = test: Induction of apoptosis in human SK-Hep1 cells assessed as early apoptotic cells at 80 nM incubated for 24 hrs by annexin V-FITC/PI staining flow cytometry (reference value: 0.30 %); format: functional
HCC [32] = test: Inhibition of clonogenicity in human HCC cells assessed as decrease in number of colonies at 3 to 18 nM incubated for 1 to 2 weeks by optical microscopy analysis; format: functional, cell-based; conditions: dose 3-18 nM, time 1-2 weeks

Compound | Activity (SK-HEP1 [1]) | Activity (Huh-7 [2]) | Activity (Huh-7 [3]) | viability at 0.08 µM (SK-HEP1 [4]) | Activity (Huh-7 [5]) | Activity (SK-HEP1 [6]) | Activity [7] | Activity (Huh-7 [8]) | Activity (SK-HEP1 [10]) | Activity (SK-HEP1 [11]) | viability at 0.08 µM [12] | Activity (Huh-7 [13]) | Activity (Huh-7 [15]) | Activity (Huh-7 [16]) | inhibition (HCC [17]) | Activity (Huh-7 [18]) | IC50 at 72 h [19] | Activity (SK-HEP1 [20]) | Activity (SK-HEP1 [21]) | Activity (SK-HEP1 [23]) | other results
CC(=O)Oc1ccc2[nH]c3c(c2c1)CCN1C(=O)c2cc(F)cc(F)c2N(c2cccc(F)c2)C31 (stereo not drawn) | 19.76% | 1.51% | Dde | 84% | 0.63% | 5.25% | 12.8% | Dde | 2.63% | 18.08% | 41.7% | 34.56% | 8.43% | 50.27% | Dde | 10.1% | 950 nM | 7.45% | 2.44% | 3.88% | Activity [9]: Non-Toxic; Activity [14]: Non-Toxic; Activity (Huh-7 [22]): Active; Activity (Huh-7 [24]): Tde; Activity (Huh-7 [25]): 17.18%; Activity (Huh-7 [26]): 25.6%; Activity [27]: 1.29%; viability at 0.08 µM (Huh-7 [28]): 59.7%; Activity (SK-HEP1 [29]): Dde; viability at 0.04 µM (SK-HEP1 [30]): 75.9%; Activity (HSC-T6): Dde; Activity (SK-HEP1 [31]): 13.5%; inhibition (HCC [32]): Active
O=C1c2cc(F)cc(F)c2N(c2cccc(F)c2)C2c3[nH]c4ccc(O)cc4c3CCN12 (stereo not drawn) | 11.58% | 1.53% | Dde | 73.4% | 0.73% | 0.91% | 10.4% | Dde | 2.39% | 26.65% | 83.8% | 26.7% | 10.85% | 63.75% | Dde | 4.51% | 780 nM | 3.83% | 2.92% | 4.5% | Activity (Huh-7 [24]): Tde; Activity (Huh-7 [25]): 10.64%; Activity (Huh-7 [26]): 13.5%; Activity [27]: 1.11%; viability at 0.08 µM (Huh-7 [28]): 58.4%; Activity (SK-HEP1 [29]): Dde; viability at 0.04 µM (SK-HEP1 [30]): 74.7%; Activity (HSC-T6): Dde; Activity (SK-HEP1 [31]): 0.75%; inhibition (HCC [32]): Active
